From patent US7632524B2, “Pharmaceutical preparations for the treatment of itch, nausea, hyperalgesia and the complications of opioid agonists” (priority 2002, dated 2009)

Legend:
Assay type in all cases: in vivo
opioid-induced emesis = experiment: Ferret model of opioid (morphine-6-glucuronide)-induced emesis
Description: FIG. 1. Prevention of opioid-induced emesis by the Croton speceis extract, (Zangrado®). Emesis as measured by the number of vomiting and retching episodes per hour was induced by parenteral administration of the opioid narcotic, morphine-6-glucuronide (15 mg/kg) ip.
Sangre de Grado has also been used ethnomedically for the treatment of a variety of intestinal complications including diarrhea, ulcerations, cancer and emesis. Using a well-established ferret model of post-operative complications of emesis induced by morphine, Zangrado (CGO 110) was administered intraperitoneally (3 mg/kg) to ferrets 15 minutes prior to the administration of morphine-6-glucuronide (M6G), known to promote itching, retching and vomiting. The animals were monitored for sixty minutes.
As shown in FIG. 1 the subcutaneous injection of 0.05 mg/kg M6G caused a significant number of vomiting (2.2±0.4) and retching (10±1.2) incidences in the control group. In those animals treated with Zangrado (CGO 110), the number of these episodes was virtually abolished (vomiting 0.6±0.3; retching 2.2±0.7, P<0.05). Given the utility of this model to predict treatments for nausea and vomiting, Zangrado (CGO 110) contains active components and is effective in the treatment of emesis.

opioid-induced itch = experiment: Ferret model of opioid (morphine-6-glucuronide)-induced itch (licking)
Description: FIG. 2: FIG. 2. Prevention of opioid-induced itch by Zangrado. Itch, as measured by the number of licking episodes per hour, was induced by parenteral administration of the opioid narcotic, morphine-6-glucuronide (15 mg/kg) ip.
Zangrado (CGO 110) contains active components and is effective in the treatment of itch.

[1] = Body temperature and sedation at anti-emetic doses; settings: CGO 110 3 mg/kg
Excerpt: As such, Zangrado represents a significant improvement in the treatment of emesis and itch.

Row | Compound | effect on emesis in naïve animals (opioid-induced emesis) | effect on licking in naïve animals (opioid-induced itch) | effect on body temperature [1] | sedation [1]
1 | Cc1c(C(=O)NN2CCCCC2)nn(-c2ccc(Cl)cc2Cl)c1-c1ccc(I)cc1 [AM251] | promotes emesis | promotes licking | – | –
2 | Cc1c(C(=O)c2cccc3ccccc23)c2cccc3c2n1[C@H](CN1CCOCC1)CO3 [WIN 55, 212-2] | – | – | produces a drop in body temperature | significant sedation
